Results on ten compounds are retold here after patent US5583000A, “Protease-binding compounds and methods of use” (priority 1993, dated 1996).

Converted amounts (≈) assume the structure as drawn. “And” between values parts separate entries of the source, which are not always exact repeats. Identical values can stand only once. Like-named read-outs stand apart in the source and are kept apart here. Square brackets hold non-standard residues; d marks the D form. Ends that are not written are not given here. Peptide text beside a SMILES is read from it. * marks the point of attachment. Sta = CC(C)C[C@H](N)[C@@H](O)CC(=O)O; Isovaleryl = CC(C)CC(=O)*

Data set [1] has as its target T1, HIV-2 PR (Human immunodeficiency virus type 2 subtype A, UniProt P04584).
T1 construct: HIV-2 PR (at a final concentration of 30 μg/mL); made in house
Kind of data set: biochemical. Type of data set: biochemical. Conditions: for KI (inactivation): inhibitor concentration resulting in half-maximal inactivation, pH 8.0, 25° C., read-out: kinact (μM) HIV-2; for kinact: pH 8, maximum inactivation rate, read-out: Vinact (min^-1 × 10^3) HIV-2 (converted).

Data set [2] addresses HIV-1 PR Q7K (Human immunodeficiency virus type 1 group M subtype B, UniProt P03369, Q497K). Type of data set: biochemical.
Data set [3] deals with T1, HIV-2 PR. The experiment in a line: Protection experiment, incorporation of radio-labelled UCSF84. Type of data set: binding.
The target in data set [4] is T2, HIV-1 PR (Human immunodeficiency virus type 1 group M subtype B, UniProt P03369). Kind of data set: biochemical. Type of data set: binding. The conditions noted are these: preincubation 10 μM one hour, then radio-labelled UCSF84 200 μM.
Data set [5] has as its target HIV-1 PR C95M (Human immunodeficiency virus type 1 group M subtype B, UniProt P03369, C585M). The experiment in a line: Protection experiment, incorporation of radio-labelled UCSF84. Conditions: for incorporation after preincubation of the enzyme: preincubation 10 μM, then radio-labelled UCSF84. Type of data set: binding.
Data set [6] addresses T3, HIV-1 protease (Human immunodeficiency virus type 1 group M subtype B, UniProt P03369). Kind of data set: biochemical.
Data set [7] has as its target T4, HIV-2 protease (Human immunodeficiency virus type 2 subtype A, UniProt P04584).
T4 construct: the coding region of the 99-amino acid protease; made in house; host or cells: Saccharomyces cerevisiae strain AB110, plasmid pHIV2PR115
Kind of data set: biochemical.

The nature of data set [8]: physchem.
Data set [9] addresses T3, HIV-1 protease. Type of data set: cell-based. Also noted: fused to amino acids 5 (Asp) to 179 (Trp) of the pol region; human superoxide dismutase (hSOD, 153 residues) (N); Phe-Arg-Glu are pol residues) (N); additional Pro residue of pol (C); expressed in transfected cells; host or cells: E. coli strain D1210 harboring plasmid pSOD/PR179.
The nature of data set [10]: in vitro.
Data set [11] concerns p24. Kind of data set: p24 core antigen ELISA of virus from treated COS-7 cells.
Protocol: Drug treatment. The compounds were added 48 hours post-transfection, at the peak of virus production, and the incubation was restricted to a 4-hour period. […] Culture media were adjusted to the desired concentration of these compounds just prior to the addition of the media to cells. To avoid precipitation, the compounds were aliquoted first to a tube in sufficient DMSO to yield a 1.0% final concentration, and subsequently the culture medium was added quickly and vortexed. The culture medium was collected after 4 hours of incubation of the cells with each of the compounds. This culture supernatant is the source of virus for measurement of infectivity as well as levels of p24 and other capsid proteins.
p24 Core antigen ELISA assay. An ELISA kit purchased from NEN/Dupont was used to determine the amount of p24 present in culture media or virus preparations. This capture assay uses a monoclonal antibody that preferentially binds p24 while it reacts with larger capsid protein precursors to a very limited extent. The assay was carded out using the manufacturer's indications. Samples were pre-treated with 1% Triton to inactivate the virus.
Virus isolation by ultracentrifugation. The culture medium was filtered through a 0.45 μm syringe filter and was then centrifuged to remove any precipitate. The medium was then spun through a cushion of 20% sucrose in PBS in an SW41 Beckman rotor for 1.5 hours at 35K and 4° C. The pelleted material was collected.
Following incubation of virus-producing cells with various concentrations of the test compounds, the virus particles were isolated by ultracentrifugation. These particles were disrupted using Triton X-100 and the amount of p24 capsid protein was quantitated by ELISA.
A short description of data set [12]: in vitro. The conditions noted are these: african green monkey, cos-7 cells.
Protocol: (§1) MTT cell viability assay. This is a quantitative colorimetric assay for mammalian cell survival and proliferation. Cells were seeded in 96 well plates and grown to near 50% confluency. A serial dilution (1 to 500 μM) of each compound was then prepared in culture media and added (250 μL/well) in duplicate. All culture media was adjusted to a final concentration of 1.0% DMSO (volume basis). The cells were allowed to grow for either 4 hours or 24 hours. The culture media were then removed, and the cells were washed with phosphate buffered saline (PBS) before 50 μL of MTT solution (1 mg/mL in PBS) was added. After incubating for 4 hours at 37° C., the reaction was quenched by adding 160 μL of acidified isopropanol and mixing to dissolve purple crystals. The absorbance was determined within 30 minutes at 570 nm on an ELISA plate reader.
(§2) The cytotoxic effect of the inhibitors was determined using the MTT stain viability assay.
The subject of data set [13] is HIV. Kind of data set: HeLa/T4 infectivity assay with replication-defective virions from transfected COS-7 cells. Type of data set: cell-based. Conditions: for colony reduction (summary in words): Table 5 concentrations.
Data set [14] in a line: Solubility.
Data set [15] concerns the target T2, HIV-1 PR. Conditions: pH 8.
In data set [16] the target is T2, HIV-1 PR. The conditions noted are these: pH 8. The source holds these as a separate data set.
Protocol: Once full inhibition was achieved, the enzyme was isolated by reverse phase HPLC on a C3 -Zorbax Protein Plus column (4.6 mm×25 cm), using a 100-minute linear gradient from 5 to 65% acetonitrile in 0.1% TFA. The flow rate was 1 mL/min and the eluent was monitored at 220 nm. The two major components of the isolated sample were concentrated under vacuum, dissolved in a small volume of 50% acetonitrile and 1% acetic acid, and their molecular weights determined by electrospray mass spectrometry. The spectra were recorded on a VG EIectrospray. Mass Spectrometer Model Bio-Q.
A short description of data set [17]: MTT cell viability assay (Tables 5 and 7). The conditions noted are these: african green monkey, cos-7 cells.
Protocol: as §1, §2
Data set [18] concerns the target HIV protease (Human immunodeficiency virus type 1 group M subtype B, UniProt P04585). The conditions noted are these: cited from earlier work.
Where [19] appears, read: HIV-1 Protease IC50 (μM) 1M NaCl.
Setting [20] is: Human immunodeficiency virus 1, COS-7, 4 h, read-out: % p24 Relative to Untreated.
The mark [21] stands for this setting: read-out: kinact (μM) HIV-1; inhibitor concentration resulting in half-maximal inactivation; pH 8.0, 25° C.

T1 sequence (P04584 514-612 limits assumed): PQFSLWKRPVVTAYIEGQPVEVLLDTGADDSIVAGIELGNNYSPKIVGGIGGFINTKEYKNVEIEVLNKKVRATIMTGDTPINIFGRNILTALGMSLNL
T4 sequence (P04584 514-612 limits assumed): as above

Regarding `O=[N+]([O-])c1ccc(OCC2CO2)cc1` (centres unmarked) [EPNP, 1,2-epoxy-3-(p-nitrophenoxy)-propane, reference compound], in data set [1], the KI (inactivation) is 6700 ± 600 µM and the kinact was 0.0482 min⁻¹. In addition, the KI (inactivation) in [2] (inhibitor concentration resulting in half-maximal inactivation; pH 8.0, 25° C.; read-out: kinact (μM) HIV-1) was 9900 ± 1000 µM. Besides, the “radioactivity incorporation after preincubation” value in [3] is on record as “almost complete elimination of radioactivity incorporation”. Also, in [4] (1 h, pH 8, read-out: blocking of radioactivity incorporation to HIV-1 PR), the inhibition at 10 µM was around 50%. Besides, the “incorporation after preincubation of the enzyme” value in [5] is on record as “sharply reduced”.
Take `OC(CCCN1CCC(O)(c2ccc(Cl)cc2)CC1)c1ccc(F)cc1` (centres unmarked) [UCSF2]: the “HIV-1 Protease Therapeutic Index (LD50 /IC50)” value in data set [6] was determined as 0.5. In addition, the results for the IC50 in [6] (setting [19]) and in data set [7] were 200 µM and 700 µM, respectively. The compound further came in with a solubility in [8] above 250 µM. Also, the “inhibition of protein processing (intermediate bands)” value in data set [9] is reported as “An increase in the band representing an intermediate in the vicinity of the 29-kDa marker”.
Regarding `OC1(c2ccc(Cl)cc2)CCN(CCCC2(c3ccc(F)cc3)SCCS2)CC1` [UCSF8, (1,2-ethanethioacetal)-4-(4-(p-chlorophenyl)-4-hydroxypiperidinyl]-4'-fluorobutyrophenone], in data set [6], the “HIV-1 Protease Therapeutic Index (LD50 /IC50)” value is 4 and the “inhibition of HIV-1 protease compared with other compounds” value is 50% inhibition is achieved at a much lower inhibitor concentration relative to haloperidol. In data set [6] (setting [19]), this compound came in with a 50% inhibitory concentration (IC50) of 15 µM. Also, the IC50 in data set [6] (IC50) is 73 µM and 32 µM and 15 µM. In data set [10], the CC50 at 6 h came to 60 µM. Also, the 50% inhibitory concentration (IC50) in data set [7] (1M NaCl) is 100 µM. Further, the activity at 20 µM in data set [11] (setting [20]) was determined as 62%. The solubility in data set [8] was above 250 µM. In data set [12], this compound showed a CC50 at 4 h of 45 µM and a cytotoxicity at 4 h, 20 µM of 55%. The inhibition at 20 µM in data set [13] (Human immunodeficiency virus 1, HeLaT4, 20 μM, 4-hour treatment, read-out: Hela/T4 Infection % Colony Reduction) was determined as 85%. For the same compound, the “colony reduction (summary in words)” value in [13] is “significant colony reduction”.
As to `OC1(CCCCc2ccccc2)CCC(O)(c2ccccc2)CC1` (centres unmarked) [UCSF29, 4-(4'-phenylbutyl)-1-phenyl-1,4-cyclohexanediol], the IC50 in data set [6] (0.2M NaCl, read-out: IC50) was 1400 µM; in data set [6] (0.5M NaCl, read-out: IC50) it was 625 µM; in data set [6] (1.0M NaCl, read-out: IC50) it was 128 µM; in [6] (HIV-1 Protease IC50 (μM) 1M NaCl, 1M NaCl) it was 128 µM. Moreover, the “inhibition of HIV-1 protease compared with other compounds” value in [6] (FIGS. 5-8, three salt concentrations) was “not unlike that for haloperidol”. In data set [6] (LD50/IC50), the “HIV-1 Protease Therapeutic Index (LD50 /IC50)” value is recorded as 1.2. In data set [10], the CC50 at 6 h is 160 µM. Moreover, the activity at 250 µM in [11] (setting [20]) amounted to 35%. This compound showed a CC50 at 4 h in [12] of 180 µM. Also, the cytotoxicity at 4 h, 250 µM in data set [12] was 80%. Moreover, in data set [14], the solubility was above 250 µM. The inhibition at 250 µM in data set [13] (Human immunodeficiency virus 1, HeLaT4, 250 μM, 4-hour treatment, read-out: Hela/T4 Infection % Colony Reduction) turned out to be 100%. In data set [13], the “colony reduction (summary in words)” value is given as “significant colony reduction”.
On to `C=C(CCC[N+]1([O-])CCC(O)(c2ccc(Cl)cc2)CC1)c1ccc(F)cc1` (centres unmarked) [UCSF42], for which, in [6], the “HIV-1 Protease Therapeutic Index (LD50 /IC50)” value was determined as 5.3 and the “inhibition of HIV-1 protease compared with other compounds” value was “better inhibitor than haloperidol but not as potent an inhibitor as UCSF8”. In addition, the IC50 in data set [6] (setting [19]) turned out to be 30 µM. Further, in data set [10], the CC50 at 6 h came out at 160 µM. This compound yielded a half-maximal inhibitory concentration (IC50) in data set [7] (1M NaCl) of 67 µM. For the same compound, in [11] (setting [20]), the activity at 75 µM came to 45%. This compound also had a solubility in data set [8] of 500 µM (≈ 195 µg/mL). In data set [12], the CC50 at 4 h was 300 µM and the cytotoxicity at 4 h, 75 µM came to 0%. For the same compound, the inhibition at 75 µM in data set [13] (Human immunodeficiency virus 1, HeLaT4, 75 μM, 4-hour treatment, read-out: Hela/T4 Infection % Colony Reduction) was found to be 92%. In [13], the “colony reduction (summary in words)” value is listed as “significant colony reduction”.
For the compound `OC1(c2ccc(Cl)cc2)CCN(CC#CC2(c3ccccc3)CO2)CC1` (centres unmarked) [UCSF84], the “reversibility of inhibition after dilution and buffer exchange” value in data set [15] is recorded as “irreversible modification of the enzyme”. The same compound registered an IC50 in data set [6] (setting [19]) of 150 µM. Moreover, the CC50 at 6 h in data set [10] was 100 to 165 µM. In addition, the IC50 in data set [11] (read-out: Reduction of p24 IC50, 4 hours incubation, ELISA) amounted to 50 µM. The compound also had a solubility in [8] above 250 µM. Besides, in data set [1], the KI (inactivation) is 283 ± 9.3 µM and the kinact is 0.0146 min⁻¹. Further, in [2] (setting [21]), the KI (inactivation) stood at 521 ± 56.6 µM. For the same compound, in [12], the CC50 at 4 h was 120 µM and the CC50 at 24 h amounted to 50 µM. For the same compound, the “incorporation of radioactivity relative to HIV-1 PR” value in data set [5] (200 μM, one hour, 25° C.) is recorded as “approximately 50%”.
In the case of `O=C(C#CCN1CCC(O)(c2ccc(Cl)cc2)CC1)c1cccc(-c2ccccc2)c1` [UCSF142, 4-(4'-(4"-chlorophenyl)-4'-hydroxypiperidinyl)-1-m-biphenylbut-2-yn-1-one], in data set [6], the “HIV-1 Protease Therapeutic Index (LD50 /IC50)” value is on record as 0.56. The concentration for half-maximal inhibition (IC50) in data set [6] (setting [19]) turned out to be 63 µM. In data set [10], this compound registered a CC50 at 6 h of 35 µM. Also, the solubility in [8] stood at 100 µM (≈ 43 µg/mL). In addition, in data set [1], the KI (inactivation) was determined as 8.6 ± 1 µM and the kinact was 0.0097 min⁻¹. In addition, the KI (inactivation) in data set [2] (setting [21]) was 10.7 ± 1.3 µM. In addition, in [12], the CC50 at 4 h amounted to 35 µM and the CC50 at 24 h was below 5 µM. In data set [16], the “molecules of inhibitor bound per HIV-1 protease (molecular weight 11,649)” value is recorded as “two molecules”.
As for `C/C=C/C/C=C/CCC(=O)[C@H]1O[C@H]1C(N)=O` [cerulenin, reference compound], the activity at 100 µM in [11] (setting [20]) stood at 36%. Besides, the cytotoxicity at 4 h, 100 µM in [17] is 0%. The compound further returned a CC50 at 4 h in [12] of 900 µM. Further, the “inhibition of protein processing (35-kDa and 38-kDa intermediates)” value in data set [9] (500 μM, 15 minutes (FIG. 11b)) is on record as “no detectable inhibition”. Moreover, the “inhibition of protein processing (intermediate bands)” value in data set [9] (500 μM, 120 minutes (FIG. 11c)) is “protein processing inhibition”. In addition, the inhibition at 100 µM in [13] (Human immunodeficiency virus 1, HeLaT4, 100 μM, 4-hour treatment, read-out: Hela/T4 Infection % Colony Reduction) is 77%.
As to `CC(C)CC(=O)N[C@H](C(=O)N[C@H](C(=O)N[C@@H](CC(C)C)[C@@H](O)CC(=O)N[C@@H](C)C(=O)N[C@@H](CC(C)C)[C@@H](O)CC(=O)O)C(C)C)C(C)C` [pepstatin A] (Isovaleryl-VV[Sta]A[Sta]-OH), in data set [18], the “inhibition of protein processing by HIV protease” value is given as “partially inhibit protein processing”.
Regarding “Val-Ser-Asn-Ler-.psi.[CH(OH)CH2 ]-Val-Ile-Val (VSNLVIV; numbers in words are those of the source; also: Leu-Val peptide bond replaced by hydroxyethylene isostere ψ[CH(OH)CH2]) [Compound U-85548]”, the “blocking of radioactivity incorporation to HIV-1 PR” value in data set [4] is “approximately 65%”. For the same compound, the “incorporation after preincubation of the enzyme” value in [5] was “sharply reduced”.
